Assays:
BRAF V600E = molecular target: T1, BRAF V600E (Homo sapiens, UniProt P15056, V600E); assay: Cellular assay of target protein degradation, T-Rex 293 cells stably transfected with HA-BRAF_V600E (HA immunofluorescence, high content imaging); type: cell-based; settings: T-Rex 293 HA-BRAF V600E; for DC50: half maximal degradation, read-out: BRaf V600E DC50; for Dmax: maximum degradation observed
T1 construct: expressed in transfected cells
Procedure, shortened: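 Cells are plated with 1 ng/mL doxycycline and grown 24 h. Compound is then added (final 1 μM–0.1 nM, 0.1% DMSO) for another 24 h at 37 °C, followed by fixing, HA immunostaining and imaging to obtain DC50 and Dmax.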

BRAF G466V = molecular target: T2, BRAF G466V (Homo sapiens, UniProt P15056, G466V); assay: Cellular assay of target protein degradation, T-Rex 293 cells stably transfected with HA-BRAF G466V (HA immunofluorescence, high content imaging); type: cell-based; settings: T-Rex 293 HA-BRAF G466V; for DC50: half maximal degradation, read-out: BRaf G466V DC50; for Dmax: maximum degradation observed
T2 construct: expressed in transfected cells
T2 sequence (P15056 whole entry G466V): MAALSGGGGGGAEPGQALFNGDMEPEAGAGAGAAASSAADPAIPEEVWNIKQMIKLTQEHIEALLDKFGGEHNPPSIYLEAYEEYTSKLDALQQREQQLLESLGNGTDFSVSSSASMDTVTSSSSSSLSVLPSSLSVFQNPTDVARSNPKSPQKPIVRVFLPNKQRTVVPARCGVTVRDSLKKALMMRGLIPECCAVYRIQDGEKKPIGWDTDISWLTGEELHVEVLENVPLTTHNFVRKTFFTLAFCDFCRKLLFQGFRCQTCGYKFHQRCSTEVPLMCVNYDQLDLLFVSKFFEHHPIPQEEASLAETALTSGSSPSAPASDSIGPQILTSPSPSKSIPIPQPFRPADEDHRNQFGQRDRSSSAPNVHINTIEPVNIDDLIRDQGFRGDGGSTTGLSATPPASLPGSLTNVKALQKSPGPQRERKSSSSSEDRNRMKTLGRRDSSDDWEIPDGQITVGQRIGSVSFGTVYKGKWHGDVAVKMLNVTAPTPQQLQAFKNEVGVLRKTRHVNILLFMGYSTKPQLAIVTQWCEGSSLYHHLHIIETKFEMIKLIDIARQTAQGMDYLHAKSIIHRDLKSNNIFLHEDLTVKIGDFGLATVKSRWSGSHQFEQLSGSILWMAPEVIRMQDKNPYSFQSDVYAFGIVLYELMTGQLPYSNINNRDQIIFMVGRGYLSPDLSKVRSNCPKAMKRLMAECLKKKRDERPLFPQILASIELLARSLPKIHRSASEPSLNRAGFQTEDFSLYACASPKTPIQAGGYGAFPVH
Procedure, shortened: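 Read-out is HA immunofluorescence by high content imaging, with Hoechst and phalloidin co-staining, giving DC50 and Dmax as a percentage of control. Compound exposure lasts 24 hours at 37° C over 30 nM to 3 pM in 0.1% DMSO, with doxycycline-induced HA-BRAF G466V.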

T1 sequence (P15056 whole entry V600E): as the sequence (P15056 whole entry G466V) above, with V466G, V600E counted along it

| Structure (SMILES) | DC50 (BRAF V600E) | Dmax (BRAF V600E) | DC50 (BRAF G466V) | Dmax (BRAF G466V) |
| --- | --- | --- | --- | --- |
| O=C1CC[C@@H](N2Cc3cc(C4CCN(CC5CCN(c6ccc(-c7cnc8[nH]cc(C(=O)c9c(F)ccc(NS(=O)(=O)N%10CCCC%10)c9F)c8c7)cc6)CC5)CC4)ccc3C2=O)C(=O)N1 [Compound 231, N-{3-[5-(4-{4-[(4-{2-[(3R)-2,6-dioxopiperidin-3-yl]-1-oxo-2,3-dihydro-1H-isoindol-5-yl}piperidin-1-yl)methyl]piperidin-1-yl}phenyl)-1H-pyrrolo[2,3-b]pyridine-3-carbonyl]-2,4-difluorophenyl}pyrrolidine-1-sulfonamide] | 5 to 50 nM | 35 to 70% | 1 to 10 nM | > 70% |
| COc1cc(N2CC(CN3CCN(c4ccc(-c5cnc6[nH]cc(C(=O)c7c(F)ccc(NS(=O)(=O)N8CC[C@@H](F)C8)c7F)c6c5)cc4)CC3)C2)cc2c1C(=O)N(C1CCC(=O)NC1=O)C2 (stereo partly drawn) [Compound 70, (3R)-N-[3-(5-{4-[4-({1-[2-(2,6-dioxopiperidin-3-yl)-7-methoxy-1-oxo-2,3-dihydro-1H-isoindol-5-yl]azetidin-3-yl}methyl)piperazin-1-yl]phenyl}-1H-pyrrolo[2,3-b]pyridine-3-carbonyl)-2,4-difluorophenyl]-3-fluoropyrrolidine-1-sulfonamide] | 5 to 50 nM | 35 to 70% | < 1 nM | 35 to 70% |
| O=C1CC[C@H](N2Cc3cc(OC[C@@H](O)CN4CC5(C4)CN(c4ccc(-c6cnc7[nH]cc(C(=O)c8c(F)ccc(NS(=O)(=O)N9CC[C@@H](F)C9)c8F)c7c6)cc4)C5)ccc3C2=O)C(=O)N1 [Compound 165, (3R)-N-{3-[5-(4-{6-[(2S)-3-({2-[(3S)-2,6-dioxopiperidin-3-yl]-1-oxo-2,3-dihydro-1H-isoindol-5-yl}oxy)-2-hydroxypropyl]-2,6-diazaspiro[3.3]heptan-2-yl}phenyl)-1H-pyrrolo[2,3-b]pyridine-3-carbonyl]-2,4-difluorophenyl}-3-fluoropyrrolidine-1-sulfonamide] | 5 to 50 nM | 35 to 70% | 1 to 10 nM | > 70% |
| CN(CCN1CCN(c2ccc(-c3cnc4[nH]cc(C(=O)c5c(F)ccc(NS(=O)(=O)N6CC[C@@H](F)C6)c5F)c4c3)cc2)CC1)[C@H]1CC[C@H](Oc2ccc3c(c2)CN(C2CCC(=O)NC2=O)C3=O)CC1 (stereo partly drawn) [Compound 195, (3R)-N-[2,4-difluoro-3-(5-{4-[4-(2-{methyl[(1r,4r)-4-{[2-(2,6-dioxopiperidin-3-yl)-1-oxo-2,3-dihydro-1H-isoindol-5-yl]oxy}cyclohexyl]amino}ethyl)piperazin-1-yl]phenyl}-1H-pyrrolo[2,3-b]pyridine-3-carbonyl)phenyl]-3-fluoropyrrolidine-1-sulfonamide] | 5 to 50 nM | 35 to 70% | 1 to 10 nM | 35 to 70% |
| C[C@H]1CC[C@H](C)N1S(=O)(=O)Nc1ccc(F)c(C(=O)c2c[nH]c3ncc(-c4ccc(N5CCC(CN6CCC(c7ccc8c(c7)CN(C7CCC(=O)NC7=O)C8=O)CC6)CC5)cc4)cc23)c1F (stereo partly drawn) [Compound 263, (2S,5S)-N-[3-(5-{4-[4-({4-[2-(2,6-dioxopiperidin-3-yl)-1-oxo-2,3-dihydro-1H-isoindol-5-yl]piperidin-1-yl}methyl)piperidin-1-yl]phenyl}-1H-pyrrolo[2,3-b]pyridine-3-carbonyl)-2,4-difluorophenyl]-2,5-dimethylpyrrolidine-1-sulfonamide] | 50 to 500 nM | < 35% | 1 to 10 nM | 35 to 70% |
| O=C1CCC(N2Cc3cc(C4CCN(CC5CCN(c6ccc(-c7cnc8[nH]cc(C(=O)c9c(F)ccc(NS(=O)(=O)N%10CC[C@@H](F)C%10)c9F)c8c7)cc6)CC5)CC4)c(F)cc3C2=O)C(=O)N1 (stereo partly drawn) [Compound 157, (3R)-N-[3-(5-{4-[4-({4-[2-(2,6-dioxopiperidin-3-yl)-6-fluoro-1-oxo-2,3-dihydro-1H-isoindol-5-yl]piperidin-1-yl}methyl)piperidin-1-yl]phenyl}-1H-pyrrolo[2,3-b]pyridine-3-carbonyl)-2,4-difluorophenyl]-3-fluoropyrrolidine-1-sulfonamide] | 5 to 50 nM | 35 to 70% | 1 to 10 nM | > 70% |
| O=C1CCC(N2Cc3cc(CCCN4CC5(C4)CN(c4ncc(-c6cnc7[nH]cc(C(=O)c8c(F)ccc(NS(=O)(=O)N9CC[C@@H](F)C9)c8F)c7c6)cn4)C5)ccc3C2=O)C(=O)N1 (stereo partly drawn) [Compound 147, (3R)-N-(3-{5-[2-(6-{3-[2-(2,6-dioxopiperidin-3-yl)-1-oxo-2,3-dihydro-1H-isoindol-5-yl]propyl}-2,6-diazaspiro[3.3]heptan-2-yl)pyrimidin-5-yl]-1H-pyrrolo[2,3-b]pyridine-3-carbonyl}-2,4-difluorophenyl)-3-fluoropyrrolidine-1-sulfonamide] | 50 to 500 nM | 35 to 70% | 1 to 10 nM | 35 to 70% |
| O=C1CC[C@H](NC(=O)c2cc(C3CCN(CC4CCN(c5ccc(-c6cnc7[nH]cc(C(=O)c8c(F)ccc(NS(=O)(=O)N9CC[C@@H](F)C9)c8F)c7c6)cc5)CC4)CC3)ccc2F)C(=O)N1 [Compound 196, 5-(1-{[1-(4-{3-[2,6-difluoro-3-({[(3R)-3-fluoropyrrolidin-1-yl]sulfonyl}amino)benzoyl]-1H-pyrrolo[2,3-b]pyridin-5-yl}phenyl)piperidin-4-yl]methyl}piperidin-4-yl)-N-[(3S)-2,6-dioxopiperidin-3-yl]-2-fluorobenzamide] | 5 to 50 nM | 35 to 70% | 1 to 10 nM | 35 to 70% |
| COc1cc(N2CC3(CN(CCc4ccc(-c5cnc6[nH]cc(C(=O)c7c(F)ccc(NS(=O)(=O)N8CC[C@@H](F)C8)c7F)c6c5)cc4)C3)C2)ccc1C(=O)N[C@H]1CCC(=O)NC1=O [Compound 361, 4-{6-[2-(4-{3-[2,6-difluoro-3-({[(3R)-3-fluoropyrrolidin-1-yl]sulfonyl}amino)benzoyl]-1H-pyrrolo[2,3-b]pyridin-5-yl}phenyl)ethyl]-2,6-diazaspiro[3.3]heptan-2-yl}-N-[(3S)-2,6-dioxopiperidin-3-yl]-2-methoxybenzamide] | 5 to 50 nM | 35 to 70% | 1 to 10 nM | > 70% |

The next lines start with the values.

| DC50 (BRAF V600E) | Dmax (BRAF V600E) | DC50 (BRAF G466V) | Dmax (BRAF G466V) | Structure (SMILES) |
| --- | --- | --- | --- | --- |
| 5 to 50 nM | < 35% | 1 to 10 nM | 35 to 70% | O=C1CCC(N2Cc3cc(N4CCN(c5cc(N6CCN(c7ccc(-c8cnc9[nH]cc(C(=O)c%10c(F)ccc(NS(=O)(=O)N%11CC[C@@H](F)C%11)c%10F)c9c8)cc7)CC6)ncn5)CC4)ccc3C2=O)C(=O)N1 (stereo partly drawn) [Compound 115, (3R)-N-[3-(5-{4-[4-(6-{4-[2-(2,6-dioxopiperidin-3-yl)-1-oxo-2,3-dihydro-1H-isoindol-5-yl]piperazin-1-yl}pyrimidin-4-yl)piperazin-1-yl]phenyl}-1H-pyrrolo[2,3-b]pyridine-3-carbonyl)-2,4-difluorophenyl]-3-fluoropyrrolidine-1-sulfonamide] |
| 5 to 50 nM | 35 to 70% | < 1 nM | > 70% | O=C1CCC(N2Cc3cc(C4CCN(CC5CCN(c6ncc(-c7cnc8[nH]cc(C(=O)c9c(F)ccc(NS(=O)(=O)N%10CC[C@@H](F)C%10)c9F)c8c7)cn6)CC5)CC4)ccc3C2=O)C(=O)N1 (stereo partly drawn) [Compound 46, (3R)-N-[3-(5-{2-[4-({4-[2-(2,6-dioxopiperidin-3-yl)-1-oxo-2,3-dihydro-1H-isoindol-5-yl]piperidin-1-yl}methyl)piperidin-1-yl]pyrimidin-5-yl}-1H-pyrrolo[2,3-b]pyridine-3-carbonyl)-2,4-difluorophenyl]-3-fluoropyrrolidine-1-sulfonamide] |
| 5 to 50 nM | < 35% | 1 to 10 nM | 35 to 70% | CC1(c2ccc(C3CCN(CC4CCN(c5ccc(-c6cnc7[nH]cc(C(=O)c8c(F)ccc(NS(=O)(=O)N9CC[C@@H](F)C9)c8F)c7c6)cc5)CC4)CC3)cc2F)CCC(=O)NC1=O (stereo partly drawn) [Compound 176, (3R)-N-[2,4-difluoro-3-(5-{4-[4-({4-[3-fluoro-4-(3-methyl-2,6-dioxopiperidin-3-yl)phenyl]piperidin-1-yl}methyl)piperidin-1-yl]phenyl}-1H-pyrrolo[2,3-b]pyridine-3-carbonyl)phenyl]-3-fluoropyrrolidine-1-sulfonamide] |
| 5 to 50 nM | 35 to 70% | < 1 nM | 35 to 70% | O=C1CC[C@H](NC(=O)c2ccc(N3CC4(CN(CC5CCN(c6ccc(-c7cnc8[nH]cc(C(=O)c9c(F)ccc(NS(=O)(=O)N%10CC[C@@H](F)C%10)c9F)c8c7)cc6)CC5)C4)C3)cc2F)C(=O)N1 [Compound 31, 4-(6-{[1-(4-{3-[2,6-difluoro-3-({[(3R)-3-fluoropyrrolidin-1-yl]sulfonyl}amino)benzoyl]-1H-pyrrolo[2,3-b]pyridin-5-yl}phenyl)piperidin-4-yl]methyl}-2,6-diazaspiro[3.3]heptan-2-yl)-N-[(3S)-2,6-dioxopiperidin-3-yl]-2-fluorobenzamide] |
| 5 to 50 nM | 35 to 70% | < 1 nM | 35 to 70% | O=C1CCC(NC(=O)c2ccc(N3CC4(CN(CCc5ccc(-c6cnc7[nH]cc(C(=O)c8c(F)ccc(NS(=O)(=O)N9CC[C@@H](F)C9)c8F)c7c6)cc5)C4)C3)cc2F)C(=O)N1 (stereo partly drawn) [Compound 374, 4-{6-[2-(4-{3-[2,6-difluoro-3-({[(3R)-3-fluoropyrrolidin-1-yl]sulfonyl}amino)benzoyl]-1H-pyrrolo[2,3-b]pyridin-5-yl}phenyl)ethyl]-2,6-diazaspiro[3.3]heptan-2-yl}-N-(2,6-dioxopiperidin-3-yl)-2-fluorobenzamide] |
